# Assay results reported in patent US11530181B2, “IL-6 inhibitors and methods of treatment” (University of Florida Research Foundation, Incorporated, priority 2018, dated 2022).
# Legend:
# [1] = tested on: multiple myeloma cell line U266; assay: Cell viability assay, U266; format: cell-based, human; conditions: for IC50: Homo sapiens, U-266, U266, 72 h; for inhibitory effect compared to parent compound LLM4: U266, 25 μM, 48 and 72 hours
# Description: (§1) Cell viability was evaluated by using the MTT assay in triple replicates in one experiment and repeated for three times. Cancer cells were seeded in 96-well plates at a density of 3,000 cells per well. The cells were incubated at 37° C. for a period of 24 hours. Escalating concentrations of IL-6/gp130 inhibitors were added in triplicate to the plates in the presence of 10% FBS. After incubation for 48 or 72 hours, a stock solution of MTT (0.5 mg/ml) was then added to each well containing the treated cells, followed by incubation at 37° C. for 3 h. After removal of medium, the MTT dye was dissolved with spectrophotometric grade DMSO and the absorbance was read at 570 nm. The IC50 value is determined by interpolation based on the absorbance value halfway between positive and negative controls. In the experiment of LLM4 showing higher efficacy in cancer cells with higher levels of IL-6, instead of using medium with 10% FBS, DMEM with 0% FBS was used in order to eliminate the influence of trace amounts of growth factors and cytokines in FBS.
# It was reported in multiple myeloma cell line U266 that IL-6 is also elevated and of great importance for cancer progression [Jernberg W, Pettersson M, Carlsson M, et al. Increase in interleukin 6 (IL-6) and IL-6 receptor expression in a human multiple myeloma cell line, U-266, during long-term in vitro culture and the development of a possible autocrine IL-6 loop 1. Leukemia. 1992, 4, 310-318]. These novel IL-6/gp130 inhibitors were tested in U266 cells at a concentration of 25 μM for an incubation time of 48 and 72 hours. MDL16 and LLM4 were used as control compounds.
# gp130-D1-D3 = target: T1, gp130-D1-D3 (Homo sapiens, UniProt P40189); assay: SPR direct binding to immobilized gp130-D1-D3 (CM5 chip); conditions: for Kd: SPR, gp130-D1-D3, linear regression at low concentrations, 25% Rmax; for ΔGexp: experimental binding energy from SPR KD
# T1 construct: residues 1-301, the numbering system is based on PDB 3L5H, which is the mature form of gp130; tandem TFH purification tag (includes FLAG, as purified on anti-FLAG M2 agarose) (C); made in house; host or cells: Hi5 insect cells (baculovirus; virus generated in sf9)
# T1 sequence (P40189 23-323): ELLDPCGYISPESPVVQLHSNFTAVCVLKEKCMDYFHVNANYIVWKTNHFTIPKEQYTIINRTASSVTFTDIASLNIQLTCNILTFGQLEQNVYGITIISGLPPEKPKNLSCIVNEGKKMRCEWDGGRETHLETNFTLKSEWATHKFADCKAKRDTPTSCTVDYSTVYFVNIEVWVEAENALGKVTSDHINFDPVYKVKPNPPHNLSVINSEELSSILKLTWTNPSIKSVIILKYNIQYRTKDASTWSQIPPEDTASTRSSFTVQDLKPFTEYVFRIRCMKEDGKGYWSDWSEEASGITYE
# [2] = tested on: BxPC-3 pancreatic cancer cell line; assay: MTT cell viability assay, BxPC-3; format: cell-based, human; conditions: for inhibitory effect compared to parent compound LLM4: BxPC-3, 25 μM, 48 hours; for IC50: Homo sapiens
# Description: (§2) Human breast cancer cell lines MCF7, MDA-MB-231 and SUM159 were maintained in Dulbecco's modified Eagle medium (DMEM). Human pancreatic cancer cell line BxPC-3 was maintained in RPMI 1640 medium. Human pancreatic cancer cell line Capan-1 was maintained in Iscove's Modified Dulbecco's Medium (IMEM). All media were supplemented with 10% FBS and 1% penicillin/streptomycin, and cells were incubated in a humidified 37° C. incubator with 5% CO2. PE/CA-PJ49 cell line was purchased from external sources and maintained according to manufacturer's protocol.
# as §1
# [3] = tested on: IL-6 induced STAT3 phosphorylation; assay: Western blot, IL-6 induced STAT3 phosphorylation in MCF7; format: cell-based, human
# Description: Cells were harvested and lysed in cold radioimmunoprecipitation assay (RIPA) lysis buffer containing proteasome inhibitor cocktail and phosphatase inhibitor cocktail. The protein concentrations were determined using the BCA Protein Assay kit. After adding the loading buffer and boiling at 95° C. for 10 minutes, equivalent amounts of proteins were loaded on and separated by SDS-PAGE, and then were transferred to PVDF membranes. Membranes were probed with primary antibodies (1:1000) against phospho-STAT3 (Tyr705), STAT3, phospho-STAT1 (Tyr701), STAT1, phospho-STAT6 (Tyr 641), STAT6, and GAPDH, respectively, and horseradish peroxidase (HRP)-conjugated secondary antibody (1:10000) (Cell Signaling Technology, Beverly, Mass.). Membranes were analyzed using Enhanced Chemiluminescence Plus reagents and either scanned with the Storm Scanner (Amersham Pharmacia Biotech, Inc., Piscataway, N.J.) or imaged with ChemiDoc MP imaging system (Bio-Rad, Hercules, Calif.). For cytokine induction of STAT3 phosphorylation, MCF-7 breast cancer cells were seeded in 10 cm plates (1 million cells per plate) and allowed to adhere overnight followed by serum-starvation. […] After designated hours, LLM-418 treated and untreated cells were stimulated by IL-6, LIF, and OSM (50 ng/mL). The cells were harvested after 30 minutes and analyzed by Western blot.
# MCF7 breast cancer cells were seeded in 10 cm plates (1 million cells per plate) and allowed to adhere overnight. The following day, the cells were serum-starved. The cells were then left untreated or treated with LLM4 (5-20 μM). After designated hours, the LLM4 treated and untreated cells were stimulated by IL-6, LIF, OSM, CNTF, CT-1, IL-11, IL-4 or INF-γ (50 ng/ml). The cells were harvested after 30 minutes and analyzed by western blotting.
# [4] = tested on: SUM159 breast cancer cell line; assay: MTT cell viability assay, SUM159; format: cell-based, human; conditions: for IC50: Homo sapiens; for inhibitory effect compared to parent compound LLM4: SUM159, 25 μM, 48 hours
# Description: as §2
# as §1, with “controls.” for “controls. In the experiment of LLM4 showing higher efficacy in cancer cells with higher levels of IL-6, instead of using medium with 10% FBS, DMEM with 0% FBS was used in order to eliminate the influence of trace amounts of growth factors and cytokines in FBS.”
# [5] = MCF7, 1-4 μM, 5 h, IL-6 50 ng/ml
IC50 [1],Kd (gp130-D1-D3),ΔGexp (gp130-D1-D3),"IC50 ([2]; BXPC-3, 48 h)","IC50 ([2]; BxPC-3, Table 7)","IC50 ([4]; SUM159, 48 h)","IC50 ([4]; SUM159, SUM159, Table 7)","IC50 ([2]; BxPC-3, text b401)","IC50 ([4]; SUM159, SUM159 human breast cancer cell line, MTT)",SMILES,inhibitory effect compared to parent compound LLM4 [1],inhibitory effect compared to parent compound LLM4 [2],"inhibition of IL-6 induced STAT3 phosphorylation ([3]; MCF7, 4 μM, 2, 3 and 4 hours)","inhibition of IL-6 induced STAT3 phosphorylation [3, 5]",inhibitory effect compared to parent compound LLM4 [4],"inhibition of IL-6 induced STAT3 phosphorylation ([3]; MCF7, 15 μM, 2, 3 and 4 hours)","inhibition of STAT3 phosphorylation induced by IL-6 ([3]; MCF7, 20 μM)","amount of P-STAT3 stimulated by IL-6 ([3]; MCF7, 5-20 μM, 5 h, IL-6 50 ng/ml, western blot)","phosphorylation of STAT3 induced by IL-6 ([3]; MCF7, treatment with 10 LLM4)"
1.2 µM,20.5 µM,-6.39 kcal/mol,1.2 µM,1.2 µM,1.7 µM,1.7 µM,,,"O=C(Nc1ccccc1-c1ccn[nH]1)c1ccc(OCCN2CCCCC2)cc1 [LLM418, N-(2-(1H-pyrazol-5-yl)phenyl)-4-(2-(piperidin-1-yl)ethoxy)benzamide]",greater inhibitory effects,greater inhibitory effect,inhibit IL-6 induced STAT3 phosphorylation quite effectively,inhibited STAT3 phosphorylation stimulated by IL-6 in MCF7 cells in a dose dependent manner,greater inhibitory effect,,,,
10.9 ± 1.5 µM,,,10.9 ± 5.7 µM,,14.5 ± 3.5 µM,,3.9 µM,17 ± 5.5 µM,"O=C(Nc1cc(F)ccc1-n1cccc1)c1ccc(OCCCN2CCCCC2)cc1 [LLM4, N-(5-fluoro-2-(1H-pyrrol-1-yl)phenyl)-4-(3-(piperidin-1-yl)propoxy)benzamide]",,,,,,inhibit IL-6 induced STAT3 phosphorylation quite effectively,almost complete inhibition,decreased with increasing concentrations,Significant reduction
1.9 µM,15.6 µM,-6.55 kcal/mol,8.3 µM,8.3 µM,2.8 µM,2.8 µM,,,"O=C(Nc1cccc(OCCN2CCCCC2)c1)Nc1cccc(-c2ccn[nH]2)c1 [LLM414, 1-(3-(1H-pyrazol-5-yl)phenyl)-3-(3-(2-(piperidin-1-yl)ethoxy)phenyl)urea]",greater inhibitory effects,greater inhibitory effect,,inhibited STAT3 phosphorylation stimulated by IL-6 in MCF7 cells in a dose dependent manner,greater inhibitory effect,,,,
